Data taken from PMC8454703 (Biochemical Journal, 2021).
Numbering of substitutions follows the chain as printed.

Experiments:
Test in all cases: SPR, protein over lipid vesicles on L1 chip
Type in all cases: binding
[1] = molecular target: T1, sTIM-3 (Homo sapiens, UniProt Q8TDQ0, F61A)
T1 sequence (Q8TDQ0 22-202 F61A limits assumed): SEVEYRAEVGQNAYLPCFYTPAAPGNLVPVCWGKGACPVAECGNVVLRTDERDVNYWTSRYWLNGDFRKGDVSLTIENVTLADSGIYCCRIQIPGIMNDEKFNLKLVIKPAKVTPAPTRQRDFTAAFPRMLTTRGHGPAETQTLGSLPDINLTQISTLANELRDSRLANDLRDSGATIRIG

[2] = molecular target: T2, sTIM-1 (Homo sapiens, UniProt Q96D42)
T2 sequence (Q96D42 21-295 limits assumed): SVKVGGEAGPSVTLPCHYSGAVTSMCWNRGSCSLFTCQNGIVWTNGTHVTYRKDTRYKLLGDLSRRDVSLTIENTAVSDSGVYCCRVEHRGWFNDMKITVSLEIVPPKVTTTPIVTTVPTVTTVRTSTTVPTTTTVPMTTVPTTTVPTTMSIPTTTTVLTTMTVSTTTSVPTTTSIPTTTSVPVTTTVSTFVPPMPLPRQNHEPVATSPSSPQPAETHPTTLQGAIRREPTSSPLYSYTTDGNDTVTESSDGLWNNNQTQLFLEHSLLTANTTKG

[3] = molecular target: T3, sTIM-3 (Homo sapiens, UniProt Q8TDQ0, I117A/M118A)
T3 sequence (Q8TDQ0 22-202 I117A/M118A limits assumed): T1 sequence (Q8TDQ0 22-202 F61A limits assumed) with A40F, I96A, M97A

[4] = molecular target: T4, sTIM-4 (Homo sapiens, UniProt Q96H15)
T4 sequence (Q96H15 25-314 limits assumed): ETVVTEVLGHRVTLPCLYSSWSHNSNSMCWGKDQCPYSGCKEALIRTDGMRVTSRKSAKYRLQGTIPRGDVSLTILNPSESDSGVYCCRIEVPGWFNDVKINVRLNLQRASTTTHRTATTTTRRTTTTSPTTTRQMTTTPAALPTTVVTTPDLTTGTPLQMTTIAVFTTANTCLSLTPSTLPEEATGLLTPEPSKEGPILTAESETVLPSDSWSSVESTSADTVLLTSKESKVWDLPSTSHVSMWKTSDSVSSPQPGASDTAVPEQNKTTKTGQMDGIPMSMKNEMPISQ

[5] = molecular target: T5, sTIM-3 (Homo sapiens, UniProt Q8TDQ0)
T5 sequence (Q8TDQ0 22-202 limits assumed): T1 sequence (Q8TDQ0 22-202 F61A limits assumed) with A40F

`CCCCCCCC/C=C\CCCCCCCC(=O)OC[C@H](COP(=O)(O)OC[C@H](N)C(=O)O)OC(=O)CCCCCCC/C=C\CCCCCCCC` [DOPS] showed a Kd [1] of over 200 µM, a Kd [2] of 0.35 ± 0.05 µM and a Kd [3] of over 200 µM. The Kd [4] was 0.77 ± 0.32 µM and the Kd [5] was 9.7 ± 4.2 µM.
